Here are results for 27 compounds from patent US20250381110A1, “SKIN CARE COMPOSITION AND METHOD OF USING THE SAME” (THE PROCTER & GAMBLE COMPANY, priority 2024, published 2025).

Structures can show the parent of a compound that is named as a salt.

The experiment relates to p62-dependent mitophagy. The experiment can be described thus: Luciferase-p62 assay (Fluc-p62 clearance) in mouse embryonic fibroblasts. The experiment is classed as cell-based. The note with it: for Mean Luminescence: Luciferase-p62 assay, mouse embryonic fibroblasts (MEFs), compounds at 10 μM; for % Activity over baseline: percentage of Luciferase-p62 clearance relative to baseline (mean luminescence in the absence of doxycycline induction); for % Activity over baseline / % Activity relative to Rapamycin: MEFs, 10 μM; for % Activity relative to Rapamycin: percentage of activity relative to rapamycin tested in the same experiment at the same concentration. The protocol: To identify p62-dependent materials which increase mitophagy, a Luciferase-p62 Assay was established. This method provides an approach to measure the ability of a material to modulate p62-dependent mitophagy by using an inducible firefly luciferase-p62 (Fluc-p62) reporter cell system. In this assay, p62 levels are driven by doxycycline treatment. After levels increased, expression of Fluc-p62 is turned off by removal of doxycycline, materials are then added and assessed for how they affect clearance of Fluc-p62 protein, which is proportionate to cellular mitophagy rates (Kelly et al.). The negative control is doxycycline induced Luc-p62 in the absence of compound or bioactive material treatment and in the presence of vehicle (DMSO).
Test materials including bioactive materials were screened in mouse embryonic fibroblasts (MEFs, Harada et al.) expressing the TET-inducible p62-fluc construct as previously described (Brown et al.). […] Gibson assembly was used to insert firefly luciferase (Fluc) and p62 into the pCW57.1 backbone. Fluc, p62, and pCW57.1 were polymerase chain reaction (PCR) amplified using pfu polymerase (Life technologies) and Gibson assembly primers with 20 base pair (bp) overhangs. PCR products were separated by agarose gel electrophoreses, and fragments excised and purified before use in DNA assembly reaction with NEBuilder HiFi DNA Assembly kit (New England Biolabs). After the assembly, the reaction mix was transformed into NEB3040 Stable Competent Escherichia coli (New England Biolabs). After 24 hours growth at 31 degrees Celsius the plasmid was extracted using QIAprep Spin Miniprep kit (Qiagen). The plasmid was sequenced to confirm correct insertion of Fluc-p62. To generate MEFs stably expressing doxycycline inducible Fluc-p62, HEK293FT cells were transfected with Fluc-p62-pCW57.1 and the ViraPower Packaging Mix (Invitrogen) to produce lentivirus. MEFs were transduced with the obtained lentiviral stock following followed by selection with 1 microgram per milliliter puromycin.Fluc-p62expressing MEFs were maintained in DMEM supplemented with 10 percent fetal bovine serum (FBS), 100 units per milliliter penicillin/streptomycin, and 2 millimolar L-glutamine in a humidified atmosphere containing 5 percent carbon dioxide at 37 degrees Celsius. Cells were plated into white 96 well plates (2,000 cells per well with 100 microliters media) and allowed to settle for 24 hours. […] Subsequently, cells were treated with test materials for 48 hours in normal growth medium and analysed using ONE-Glo™+Tox Luciferase Reporter and Cell Viability Assay (Promega) by following the manufacturer's protocol.
Test compositions and control compositions were prepared as described above in the Luciferase-p62 assay (Method 3) and tested accordingly. The compounds used in this example, as examples of bioactive materials, were from the APExBIO DiscoveryProbe™ Natural Product Library Plus (Houston, TX) and evaluated at equivalent concentrations (10 μM).
Data are additionally calculated as percentage of activity relative to rapamycin, a benchmark control compound tested in the same experiment.

As to `Nc1nc2c(ncn2[C@@H]2O[C@H](COP(=O)([O-])[O-])[C@@H](O)[C@H]2O)c(=O)[nH]1.[Na+].[Na+]` [Guanosine 5′-monophosphate (sodium salt)], the “Mean Luminescence” value was found to be 977.65, the “% Activity over baseline” value was 39.58% and the “% Activity relative to Rapamycin” value was found to be 71.31%.
The like results for `O=c1ccn2c(n1)O[C@H]1[C@H](O)[C@@H](CO)O[C@H]12` [2,2′-Cyclouridine] were, in that order, 935.30, 42.20% and 76.03%.
Taken in the same sequence, the figures for `COc1cc(C=O)ccc1OC(C)=O` [Acetylvanillin] were 979.34, 39.48% and 71.13%.
The like results for `C=CC[C@@H]1/C=C(\C)C[C@H](C)C[C@H](OC)[C@H]2O[C@@](O)(C(=O)C(=O)N3CCCC[C@H]3C(=O)O[C@H](/C(C)=C/[C@@H]3CC[C@@H](O)[C@H](OC)C3)[C@H](C)[C@@H](O)CC1=O)[C@H](C)C[C@@H]2OC` [Tacrolimus (FK506)] were, in that order, 512.17, 68.35% and 123.15%.
For `CCc1ccc(CCOc2ccc(CC3SC(=O)NC3=O)cc2)nc1` (stereo not drawn) [Pioglitazone], the “Mean Luminescence” value was 847.16, the “% Activity over baseline” value is 47.65% and the “% Activity relative to Rapamycin” value was determined as 85.84%.
Taken in the same sequence, the figures for `CC(=O)OCC1=C(C(=O)O)N2C(=O)[C@@H](NC(=O)Cc3cccs3)[C@H]2SC1` [Cephalothin] were 727.65, 55.03% and 99.15%.
Taken in the same sequence, the figures for `C[C@H]1O[C@@H](O[C@H]2CC[C@@]3(C)[C@@H](CC[C@]4(C)[C@@H]3C=C[C@]35OC[C@@]6(CCC(C)(C)C[C@H]63)[C@@H](O)C[C@]54C)[C@]2(C)CO)[C@H](O)[C@@H](O[C@@H]2O[C@H](CO)[C@@H](O)[C@H](O)[C@H]2O)[C@H]1O` [Saikosaponin A] were 561.50, 65.30% and 117.65%.
Taken in the same sequence, the figures for `Oc1cc(O)cc(/C=C/c2ccc(O)cc2O)c1` [Oxyresveratrol] were 403.74, 75.05% and 135.22%.
As for `Nc1nc(=O)c2c([nH]1)NCC(CNc1ccc(C(=O)N[C@@H](CCC(=O)O)C(=O)O)cc1)N2C=O` (mixture of isomers) [Folinic acid], the “Mean Luminescence” value is reported as 762.92, the “% Activity over baseline” value was 52.85% and the “% Activity relative to Rapamycin” value was 95.22%.
Consider Tubeimoside I, for which the “Mean Luminescence” value is listed as 257.38, the “% Activity over baseline” value came to 84.09% and the “% Activity relative to Rapamycin” value is 151.52%.
Taken in the same sequence, the figures for `CCCCCCCCC[C@H](O)CC(=O)CCc1ccc(O)c(OC)c1` [Compound 10-Gingerol] were 520.57, 67.83% and 122.21%.
With `CC1=C(/C=C/C(C)=C/C=C/C(C)=C/C(=O)O)C(C)(C)CCC1` [Tretinoin (Aberela)], the “Mean Luminescence” value is listed as 773.39, the “% Activity over baseline” value is given as 52.20% and the “% Activity relative to Rapamycin” value is given as 94.06%.
Consider `O=c1[nH]cc(F)c(=O)[nH]1` [Fluorouracil (Adrucil)], for which the “Mean Luminescence” value came to 848.60, the “% Activity over baseline” value is reported as 47.56% and the “% Activity relative to Rapamycin” value worked out at 85.68%.
As for Bacitracin Zinc, the “Mean Luminescence” value is listed as 919.94, the “% Activity over baseline” value is listed as 43.15% and the “% Activity relative to Rapamycin” value came out at 77.74%.
`C[C@]12CC[C@@H]3c4ccc(O)cc4CC[C@H]3[C@@H]1CCC2=O` [Estrone]: the “Mean Luminescence” value is on record as 670.65, the “% Activity over baseline” value turned out to be 58.55% and the “% Activity relative to Rapamycin” value is listed as 105.50%.
The like results for `O=C(O)c1cccc(O)c1` [m-Hydroxybenzoic acid] were, in that order, 745.89, 53.90% and 97.12%.
Taken in the same sequence, the figures for `CC1(C)CC[C@]2(C(=O)O[C@@H]3O[C@H](CO[C@@H]4O[C@H](CO)[C@@H](O)[C@H](O)[C@H]4O)[C@@H](O)[C@H](O)[C@H]3O)CC[C@]3(C)C(=CC[C@@H]4[C@@]5(C)CC[C@H](O[C@@H]6OC[C@H](O)[C@H](O)[C@H]6O)[C@@](C)(CO)[C@@H]5CC[C@]43C)[C@@H]2C1` [Asperosaponin VI] were 955.83, 40.93% and 73.74%.
For `CN1[C@@H]2C[C@@H](OC(=O)[C@H](CO)c3ccccc3)C[C@H]1[C@@H]1O[C@@H]12` [Scopolamine hydrobromide], the “Mean Luminescence” value is recorded as 937.62, the “% Activity over baseline” value came out at 42.05% and the “% Activity relative to Rapamycin” value is on record as 75.77%.
The like results for `COc1ccc(C=O)cc1OC` [Veratraldehyde] were, in that order, 887.33, 45.16% and 81.37%.
For `CC(=O)CCC(=O)O` [Levulinic acid], the “Mean Luminescence” value amounted to 771.58, the “% Activity over baseline” value is 52.32% and the “% Activity relative to Rapamycin” value turned out to be 94.26%.
Taken in the same sequence, the figures for `Clc1ccccc1C(c1ccccc1)(c1ccccc1)n1ccnc1` [Clotrimazole] were 623.22, 61.48% and 110.78%.
Taken in the same sequence, the figures for `Clc1ccc(COC(Cn2ccnc2)c2ccc(Cl)cc2Cl)c(Cl)c1` (stereo not drawn) [Miconazole] were 297.40, 81.62% and 147.06%.
For `CC[C@H]1OC(=O)[C@H](C)[C@@H](O[C@H]2C[C@@](C)(OC)[C@@H](O)[C@H](C)O2)[C@H](C)[C@@H](O[C@@H]2O[C@H](C)C[C@H](N(C)C)[C@H]2O)[C@](C)(OC)C[C@@H](C)C(=O)[C@H](C)[C@@H](O)[C@]1(C)O` [Clarithromycin], the “Mean Luminescence” value stood at 941.49, the “% Activity over baseline” value was found to be 41.82% and the “% Activity relative to Rapamycin” value came to 75.34%.
For the compound `C=CCc1ccc(O)c(-c2cc(CC=C)ccc2O)c1` [Magnolol], the “Mean Luminescence” value was determined as 950.75, the “% Activity over baseline” value is 41.24% and the “% Activity relative to Rapamycin” value was 74.31%.
With `NCCCNCCCCNCCCN` [Spermine], the “Mean Luminescence” value was found to be 720.40, the “% Activity over baseline” value is given as 55.48% and the “% Activity relative to Rapamycin” value was found to be 99.96%.
Taken in the same sequence, the figures for `CC(C)(CO)C(O)C(=O)NCCC(=O)[O-].CC(C)(CO)C(O)C(=O)NCCC(=O)[O-].[Ca+2]` [Calcium D-Panthotenate] were 981.67, 39.33% and 70.87%.
`O=C1C[C@@H](c2ccc(O)c(O)c2)Oc2cc(O)cc(O)c21` [Eriodictyol]: the “Mean Luminescence” value turned out to be 852.50, the “% Activity over baseline” value worked out at 47.31% and the “% Activity relative to Rapamycin” value was 85.25%.
